Results on four compounds are retold here after patent US20240317764A1, “SALTS AND SOLID FORMS OF A COMPOUND HAVING APJ RECEPTOR ACTIVITY” (Annapurna Bio, Inc., priority 2022, published 2024).

Values after ≈ are worked out from the molar mass of the structure shown. “Also recorded” adds a separate entry of the source. Structures can show the parent of a compound that is named as a salt.

The nature of data set [1]: Hygroscopicity by DVS at 25° C. between 0% RH and 95% RH, XRPD after DVS. The data set is classed as physicochemical. To be noted: for Water uptake, comparison between forms (in words): DVS at 25° C., 0% RH to 95% RH; for Water uptake (25° C./80% RH): DVS; for Form change after DVS: XRPD after DVS test. How it is done:
DVS was measured via a SMS (Surface Measurement Systems) DVS Intrinsic. The relative humidity at 25° C. were calibrated against deliquescence point of LiCl, Mg(NO3)2 and KCl.
In order to evaluate the hygroscopicity of Compound I free acid Form A and re-prepared salt forms, DVS isotherm plots were collected at 25° C. between 0% RH and 95% RH. XRPD characterization was performed for the samples after DVS test.

Data set [2] can be described thus: Approximate solubility of Compound I free acid Form A in 14 solvents at RT. Type of data set: physicochemical. The protocol:
Approximate solubility of starting material (Compound I free acid Form A) was determined in 14 solvents at RT. Approximately 2 mg of sample was added into a 3-mL glass vial. Solvents in Table 1-3 were then added stepwise into the vials until the solids were dissolved visually or a total volume of 2 mL was reached. Solubility results summarized in Table 1-1 were used to guide the solvent selection in screening experiment design.

Data set [3] is described as follows: Solid stability, 54 and 91 days (XRPD and HPLC purity). To be noted: 25° C./60% RH or 40° C./75% RH. Type of data set: physicochemical.
Source text: (§1) The re-prepared choline salt Form A was used for evaluation, including solubility and solid stability. Free acid Form A was selected as comparison for pH solubility and solid stability evaluation.
Data set [4] is described as follows: Dog pharmacokinetic study after oral administration, plasma by LC-MS/MS. The data set is classed as in vivo, male Beagle dogs. The following applies: for AUC(0-t) / Tmax / Cmax: male, Beagle, 30 mg/kg; for AUC(0-t) / Cmax: mean; for AUC(0-t): t = 24 h; for Tmax: median value or range; for Cmax: plasma Compound I. How it is done:
The objective of this study was to characterize the pharmacokinetics (PK) of Compound I in male Beagle dogs after oral (P0) administration. The P0 formulation was prepared in capsule or prepared in 0.50% or […] (methyl cellulose) in water at a concentration of 6 mg/mL for oral administration at 30 mg/kg.
LC-MS/MS for the PK studies was carried out using the following instruments/conditions.
Compound I Free acid Form A and Compound I choline salt Form A were formulated as an oral suspension at a target dose concentration of 6 mg/mL in 0.500 or 1% MC in water.
The dose was administered orally by gavage at a target dose volume of 5 mL/kg. Compound I choline salt Form A was also formulated as an oral capsule at a target dose concentration of 30 mg/kg. The formulation was prepared on the day of dosing and stored at room temperature prior to administration. The dose was administered orally by gavage to dogs. Following oral administration, blood samples were collected from […] at pre-dose, 0.083, 0.25, 0.5, 1, 2, 4, 8 and 24 h post dose.
The plasma concentration of Compound I was determined by liquid chromatography with mass spectrometric detection (LC-MS/MS).

For data set [5] the following is noted: pH buffers.
Source text: as §1
A short description of another data set: physchem. To be noted: thermodynamic from solid.
[6] abbreviates: compared to Compound I choline salt Form A.

Procedure for physchem: The solubility of starting material (Compound I choline salt Form A) was estimated at room temperature (RT, ˜26° C.). Specifically, approximate 2 mg solid was added into HPLC glass vials. Solvents in Table 5-2 were then added stepwise (50/50/200/700 μL) into the vials until the solids were dissolved or a total volume of 1.0 mL was reached.

`CCOc1cccc(-c2nc3ncc([N-]S(C)(=O)=O)nc3n2-c2c(OC)cccc2OC)n1.[K+]` [Compound I potassium salt Form A, N-(1-(2,6-dimethoxyphenyl)-2-(6-ethoxypyridin-2-yl)-1H-imidazo[4,5-b]pyrazin-6-yl)methanesulfonamide potassium salt Form A]: in data set [1], the “Water uptake, comparison between forms (in words)” value (from here on “Water uptake … (in words)”) is “No significant difference”; the “Water uptake (25° C./80% RH)” value was 3.71%; the “Form change after DVS” value is listed as “No”.
For orientation: solubility means the concentration that dissolves in the medium under given conditions. As usually defined, the AUC(0-t) is exposure summed from dosing to a finite time, without extrapolation to infinity. The term Tmax denotes the time from dosing to the highest level. In general, Cmax refers to the maximum level reached in the sampled fluid or tissue. In the case of `CCOc1cccc(-c2nc3ncc(NS(C)(=O)=O)nc3n2-c2c(OC)cccc2OC)n1` [Compound I free acid Form A, N-(1-(2,6-dimethoxyphenyl)-2-(6-ethoxypyridin-2-yl)-1H-imidazo[4,5-b]pyrazin-6-yl)methanesulfonamide], the solubility was 2000 to 5000 µg/mL (≈ 4.25 to 10.6 mM) in data set [2] (organic solvent or mixture, thermodynamic from solid, 1,4-dioxane); less than 1000 µg/mL in data set [2] (organic solvent or mixture, thermodynamic from solid, 2-MeTHF); 2000 to 5000 µg/mL (≈ 4.25 to 10.6 mM) in data set [2] (organic solvent or mixture, thermodynamic from solid, ACN); 5300 to 10500 µg/mL (≈ 11.3 to 22.3 mM) in data set [2] (organic solvent or mixture, thermodynamic from solid, DCM); less than 1000 µg/mL in data set [2] (organic solvent or mixture, thermodynamic from solid, EtOAc); less than 1100 µg/mL in data set [2] (organic solvent or mixture, thermodynamic from solid, EtOH). Besides, the solubility is less than 900 µg/mL in data set [2] (organic solvent or mixture, thermodynamic from solid, IPA); less than 900 µg/mL in data set [2] (organic solvent or mixture, thermodynamic from solid, MTBE); 1000 to 2100 µg/mL (≈ 2.13 to 4.46 mM) in data set [2] (organic solvent or mixture, thermodynamic from solid, MeOH); 9000 to 18000 µg/mL (≈ 19.1 to 38.3 mM) in data set [2] (organic solvent or mixture, thermodynamic from solid, THF); 2100 to 5200 µg/mL (≈ 4.46 to 11.1 mM) in data set [2] (organic solvent or mixture, thermodynamic from solid, acetone); less than 1300 µg/mL in data set [2] (organic solvent or mixture, thermodynamic from solid, n-heptane). In addition, the solubility in data set [2] (organic solvent or mixture, thermodynamic from solid, toluene) is less than 800 µg/mL; in data set [2] (water, thermodynamic from solid, H2O), less than 1200 µg/mL. Moreover, the “Water uptake … (in words)” value in data set [1] and in data set [1] (listed as free acid Form A) was “lowest water uptake” throughout. Moreover, in data set [1], the “Water uptake (25° C./80% RH)” value amounted to 0.03%. In data set [1], the “Form change after DVS” value is reported as “No”. For the same compound, the “Solid stability: form change (XRPD) and HPLC purity” value in data set [3] was “no form change or obvious HPLC purity decrease”. Further, the AUC(0-t) in data set [4] (plasma, suspension) worked out at 13.8 µg·h/mL. In data set [4] (plasma, suspension), the Tmax amounted to 4 h. Also, the Cmax in data set [4] (suspension) came out at 983 ng/mL.
Regarding `CCOc1cccc(-c2nc3ncc(NS(C)(=O)=O)nc3n2-c2c(OC)cccc2OC)n1` [Compound I choline salt Form A, N-(1-(2,6-dimethoxyphenyl)-2-(6-ethoxypyridin-2-yl)-1H-imidazo[4,5-b]pyrazin-6-yl)methanesulfonamide choline salt Form A], the “Water uptake … (in words)” value in data set [1] is listed as “No significant difference”. Also, the “Water uptake (25° C./80% RH)” value in data set [1] is on record as 3.85%. In data set [1], the “Form change after DVS” value was “No”. Also, the “Solid stability: form change (XRPD) and HPLC purity” value in data set [3] and in data set [3] (listed as choline salt Form A) was “no form change or obvious HPLC purity decrease; also recorded: physically/chemically stable” each time. The Cmax in data set [4] (plasma, po, capsule) turned out to be 11900 ng/mL; in data set [4] (plasma, po, suspension) it was 73800 ng/mL. For the same compound, the AUC(0-t) in data set [4] (plasma, po, capsule) came out at 145 µg·h/mL; in data set [4] (plasma, po, suspension), 1120 µg·h/mL. The Tmax in data set [4] (plasma, po, suspension) fell in the range of 2 to 4 h. Moreover, the “Pharmacokinetic profile (in words)” value in data set [4] (suspension and capsule) is listed as “excellent pharmacokinetic profiles”. In addition, the “Mean AUClast and Cmax compared with free acid Form A suspension” value in data set [4] (suspension or capsule) was “greater than that of Compound I free acid Form A”. Further, in data set [5], the “pH solubility compared with free acid Form A” value is listed as “higher solubility than free acid Form A”. Moreover, the “Solubility in certain non-polar solvents (in words)” value (IPA, acetone, MEK, MIBK, ethyl acetate, isopropyl acetate, MTBE, THF, 2-MeTHF, CHCl3, n-heptane, toluene, DCM, 1,4-dioxane) is reported as “less soluble”. In addition, where the note is “methanol, DMSO, and water”, the “Solubility in polar solvents (in words)” value is “good solubility”. For the same compound, the solubility is less than 2100 µg/mL in “physchem” (1,4-Dioxane, 26 °C, organic solvent or mixture); less than 1800 µg/mL in the data set “physchem” (2-Butanol, 26 °C, organic solvent or mixture); less than 1800 µg/mL in “physchem” (2-MeTHF, 26 °C, organic solvent or mixture); 7100 to 21400 µg/mL in the data set “physchem” (ACN, 26 °C, organic solvent or mixture); less than 2100 µg/mL in “physchem” (ACN/IPAc (1:1), 26 °C, organic solvent or mixture); 2200 to 7300 µg/mL in the data set “physchem” (ACN/IPAc (9:1), 26 °C, organic solvent or mixture). In addition, the solubility was 2100 to 7000 µg/mL in the data set “physchem” (ACN/Toluene (1:1), 26 °C, organic solvent or mixture); 6300 to 18800 µg/mL in the data set “physchem” (ACN/Toluene (9:1), 26 °C, organic solvent or mixture); 7200 to 21600 µg/mL in the data set “physchem” (Acetone/H2O (19:1), 26 °C, organic solvent or mixture); less than 2100 µg/mL in the data set “physchem” (CHCl3, 26 °C, organic solvent or mixture); less than 1800 µg/mL in the data set “physchem” (CPME, 26 °C, organic solvent or mixture); less than 2100 µg/mL in “physchem” (DCM, 26 °C, organic solvent or mixture). The solubility in “physchem” (DMF, 26 °C, organic solvent or mixture) is 20200 to 40400 µg/mL; in the data set “physchem” (DMSO, 26 °C, organic solvent or mixture) it was 18800 to 37600 µg/mL; in the data set “physchem” (EtOAc, 26 °C, organic solvent or mixture) it was less than 1700 µg/mL; in the data set “physchem” (EtOH, 26 °C, organic solvent or mixture), 6800 to 20500 µg/mL; in “physchem” (EtOH/H2O (19:1), 26 °C, organic solvent or mixture) it was 6600 to 19900 µg/mL; in the data set “physchem” (IPA/ACN (1:1), 26 °C, organic solvent or mixture), 7000 to 21000 µg/mL. Moreover, the solubility in “physchem” (IPAc, 26 °C, organic solvent or mixture) was less than 2000 µg/mL; in “physchem” (MEK, 26 °C, organic solvent or mixture), less than 2000 µg/mL; in “physchem” (MIBK, 26 °C, organic solvent or mixture) it was less than 2300 µg/mL; in the data set “physchem” (MTBE, 26 °C, organic solvent or mixture), less than 2100 µg/mL; in “physchem” (MeOH/DCM (1:1), 26 °C, organic solvent or mixture) it was more than 39600 µg/mL; in “physchem” (MeOH/DCM (1:9), 26 °C, organic solvent or mixture), more than 40800 µg/mL. For the same compound, the solubility in “physchem” (MeOH/DCM (1:19), 26 °C, organic solvent or mixture) is more than 38600 µg/mL; in the data set “physchem” (THF, 26 °C, organic solvent or mixture), less than 1800 µg/mL; in “physchem” (THF/H2O (19:1), 26 °C, organic solvent or mixture), more than 40400 µg/mL; in the data set “physchem” (acetone, 26 °C, organic solvent or mixture), less than 2400 µg/mL; in the data set “physchem” (isopropanol (IPA), 26 °C, organic solvent or mixture), less than 2200 µg/mL; in the data set “physchem” (methanol, 26 °C, organic solvent or mixture), more than 45200 µg/mL. For the same compound, the solubility in “physchem” (n-heptane, 26 °C, organic solvent or mixture) is less than 2100 µg/mL; in the data set “physchem” (toluene, 26 °C, organic solvent or mixture) it was less than 2200 µg/mL; in the data set “physchem” (water, 26 °C), more than 43000 µg/mL.
In the case of `CCOc1cccc(-c2nc3ncc([N-]S(C)(=O)=O)nc3n2-c2c(OC)cccc2OC)n1.[Na+]` [Compound I sodium salt Form A, N-(1-(2,6-dimethoxyphenyl)-2-(6-ethoxypyridin-2-yl)-1H-imidazo[4,5-b]pyrazin-6-yl)methanesulfonamide sodium salt Form A], the “Water uptake (25° C./80% RH)” value in data set [1] amounted to 1.13%. Moreover, the “Form change after DVS” value in data set [1] (listed as Compound I Na salt Form A) is recorded as “converted to a new form after DVS test; also recorded: form change was observed after DVS”. In addition, the “Form change after DVS” value in data set [1] (listed as Na salt Form A) is “Yes*”. In data set [1] (setting [6]), the “Hygroscopicity (in words)” value is on record as “exhibited hygroscopicity” and the “Stability after exposure to high humidity (in words)” value was “less stable after exposed to high humidity”.
